Measured values as given in patent US7741488B2, “Tetrahydropyridothiophenes as antiproliferative agents for the treatment of cancer” (4SC AG, priority 2005, dated 2010).

Assays:
[1] = tested on: RKOp27 colon adenocarcinoma cells arrested by expression of ectopic p27Kip1; assay: Alamar Blue cell viability assay on RKO p27 cells arrested by Ponasterone A induced p27Kip1 (cell cycle specific mode of action); format: cell-based; conditions: Homo sapiens, 72 hours, cells arrested by p27Kip1 induced with 10 μM Ponasterone A
Description: To determine the cell cycle specific mode of action, subclones of RKO colon adenocarcinoma cells (RKOp27 or RKOp21 as described by Schmidt et al. in Oncogene 19, 2423-2429; 2000) are seeded into 96 well flat bottom plates at a density of 16000 cells per well in a volume of 50 μl per well in DMEM growth medium with 10% FCS containing 10 μM Ponasterone A. 24 hours after seeding the 50 μl each of the compound dilutions in DMEM medium are added into each well of the 96 Well plate. Each compound dilution is tested as quadruplicates. Wells containing untreated control cells are filled with 50 μl DMEM medium containing 1% DMSO. The cells are then incubated with the substances for 72 hours at 37° C. in a humidified atmosphere containing 5% carbon dioxide. To determine the viability of the cells, 10 μl of an Alamar Blue solution (Biosource) are added and the fluorescence was measured at an extinction of 544 nm and an emission of 590 nm. For the calculation of the cell viability the emission value from untreated cells is set as 100% viability and the emission rates of treated cells are set in relation to the values of untreated cells. Viabilities are expressed as % values. Viability is compared of proliferating cells grown in the absence of the inducer Ponasterone A, versus viability of cells arrested by the expression of ectopic p27Kip1 induced by Ponasterone A.

[2] = tested on: RKO (RKOp27) human colon adenocarcinoma cells; assay: Alamar Blue cell viability assay, anti-proliferative/cytotoxic activity on proliferating (uninduced) RKO p27 cells; format: cell-based; conditions: RKOp27, 72 h, proliferating cells without inducer Ponasterone A
Description: The anti-proliferative/cytotoxic activity of the compounds described herein, can be tested on subclones of RKO (RKOp27) human colon adenocarcinoma cells (Schmidt et al., Oncogene 19, 2423-2429; 2000) using the Alamar Blue cell viability assay (described in O'Brien et al. Eur J Biochem 267, 5421-5426, 2000). The compounds are dissolved as 20 mM solutions in dimethylsulfoxide (DMSO) and subsequently diluted in semi-logarithmic steps. DMSO dilutions are further diluted 1:100 into Dulbecco's modified Eagle's medium (DMEM) containing 10% fetal calf serum to a final concentration twice as much as the final concentration in the test. RKO subclones are seeded into 96 well flat bottom plates at a density of 4000 cells per well in a volume of 50 μl per well. 24 hours after seeding the 50 μl each of the compound dilutions in DMEM medium are added into each well of the 96 Well plate. Each compound dilution is tested as quadruplicates. Wells containing untreated control cells are filled with 50 μl DMEM medium containing 1% DMSO. The cells are then incubated with the substances for 72 hours at 37° C. in a humidified atmosphere containing 5% carbon dioxide. To determine the viability of the cells, 10 μl of an Alamar Blue solution (Biosource) are added and the fluorescence is measured at an extinction of 544 nm and an emission of 590 nm. For the calculation of the cell viability the emission value from untreated cells is set as 100% viability and the emission rates of treated cells are set in relation to the values of untreated cells. Viabilities are expressed as % values.
The corresponding IC50 values of the compounds for anti-proliferative/cytotoxic activity are determined from the concentration-effect curves.
Representative IC50 values for anti-proliferation/cytotoxicity determined in the mentioned assay follow from the following table A, in which the numbers of the compound correspond to the numbers of the examples.

IC50 [1] | SMILES | IC50 [2]
> 100000 nM | CCOC(=O)N1CCc2c(sc(NC(=O)CC(C)c3ccccc3OC)c2C#N)C1 (racemic) [Example 49, 3-Cyano-2-[(RS)-3-(2-methoxy-phenyl)-butanoylamino]-4,7-dihydro-5H-thieno[2,3-c]pyridine-6-carboxylic acid ethyl ester] | ≤ 300 nM
> 100000 nM | CCOC(=O)N1CCc2c(sc(NC(=O)CCc3ccc(OC)cc3)c2C#N)C1 [Example 1, 3-Cyano-2-[3-(4-methoxy-phenyl)-propanoylamino]-4,7-dihydro-5H-thieno[2,3-c]pyridine-6-carboxylic acid ethyl ester] | ≤ 300 nM
> 100000 nM | CCOC(=O)N1CCc2c(sc(NC(=O)CCc3cccc(OC)c3)c2C#N)C1 [Example 2, 3-Cyano-2-[3-(3-methoxy-phenyl)-propanoylamino]-4,7-dihydro-5H-thieno[2,3-c]pyridine-6-carboxylic acid ethyl ester] | ≤ 300 nM
> 100000 nM | CCOC(=O)N1CCc2c(sc(NC(=O)CCc3ccccc3OC)c2C#N)C1 [Example 3, 3-Cyano-2-[3-(2-methoxy-phenyl)-propanoylamino]-4,7-dihydro-5H-thieno[2,3-c]pyridine-6-carboxylic acid ethyl ester] | 300 to 2000 nM
> 100000 nM | CCOC(=O)N1CCc2c(sc(NC(=O)CCc3cccc([N+](=O)[O-])c3)c2C#N)C1 [Example 4, 3-Cyano-2-[3-(3-nitro-phenyl)-propanoylamino]-4,7-dihydro-5H-thieno[2,3-c]pyridine-6-carboxylic acid ethyl ester] | ≤ 300 nM
> 100000 nM | CCOC(=O)N1CCc2c(sc(NC(=O)CCc3ccc(OCC)cc3)c2C#N)C1 [Example 5, 3-Cyano-2-[3-(4-ethoxy-phenyl)-propanoylamino]-4,7-dihydro-5H-thieno[2,3-c]pyridine-6-carboxylic acid ethyl ester] | ≤ 300 nM
> 100000 nM | CCOC(=O)N1CCc2c(sc(NC(=O)CCc3cccc(OC)c3OC)c2C#N)C1 [Example 6, 3-Cyano-2-[3-(2,3-dimethoxy-phenyl)-propanoylamino]-4,7-dihydro-5H-thieno[2,3-c]pyridine-6-carboxylic acid ethyl ester] | 300 to 2000 nM
> 100000 nM | CCOC(=O)N1CCc2c(sc(NC(=O)CCc3cc(OC)ccc3OC)c2C#N)C1 [Example 7, 3-Cyano-2-[3-(2,5-dimethoxy-phenyl)-propanoylamino]-4,7-dihydro-5H-thieno[2,3-c]pyridine-6-carboxylic acid ethyl ester] | 300 to 2000 nM
> 100000 nM | CCOC(=O)N1CCc2c(sc(NC(=O)CCc3cccc(OCC)c3)c2C#N)C1 [Example 8, 3-Cyano-2-[3-(3-ethoxy-phenyl)-propanoylamino]-4,7-dihydro-5H-thieno[2,3-c]pyridine-6-carboxylic acid ethyl ester] | 300 to 2000 nM
> 100000 nM | CCOc1ccccc1CCC(=O)Nc1sc2c(c1C#N)CCN(C(=O)OC(C)(C)C)C2 [Example 9, 3-Cyano-2-[3-(2-ethoxy-phenyl)-propanoylamino]-4,7-dihydro-5H-thieno[2,3-c]pyridine-6-carboxylic acid tert-butyl ester] | ≤ 300 nM
> 100000 nM | COc1ccccc1CCC(=O)Nc1sc2c(c1C#N)CCN(C(=O)OC(C)(C)C)C2 [Example 10, 3-Cyano-2-[3-(2-methoxy-phenyl)-propanoylamino]-4,7-dihydro-5H-thieno[2,3-c]pyridine-6-carboxylic acid tert-butyl ester] | ≤ 300 nM
> 100000 nM | COc1cccc(CCC(=O)Nc2sc3c(c2C#N)CCN(C(=O)OC(C)(C)C)C3)c1 [Example 11, 3-Cyano-2-[3-(3-methoxy-phenyl)-propanoylamino]-4,7-dihydro-5H-thieno[2,3-c]pyridine-6-carboxylic acid tert-butyl ester] | ≤ 300 nM
> 100000 nM | CCOC(=O)N1CCc2c(sc(NC(=O)CCc3ccccc3OC(F)F)c2C#N)C1 [Example 12, 3-Cyano-2-{3-[2-(1,1-difluoro-methoxy)-phenyl]-propanoylamino}-4,7-dihydro-5H-thieno[2,3-c]pyridine-6-carboxylic acid ethyl ester] | ≤ 300 nM
> 100000 nM | CCOC(=O)N1CCc2c(sc(NC(=O)CCc3cc(Br)cc(OC)c3OC)c2C#N)C1 [Example 14, 2-[3-(5-Bromo-2,3-dimethoxy-phenyl)-propanoylamino]-3-cyano-4,7-dihydro-5H-thieno[2,3-c]pyridine-6-carboxylic acid ethyl ester] | ≤ 300 nM
> 100000 nM | CCOC(=O)N1CCc2c(sc(NC(=O)CCc3cc(Br)ccc3OC)c2C#N)C1 [Example 15, 2-[3-(5-Bromo-2-methoxy-phenyl)-propanoylamino]-3-cyano-4,7-dihydro-5H-thieno[2,3-c]pyridine-6-carboxylic acid ethyl ester] | ≤ 300 nM
> 100000 nM | CCOC(=O)N1CCc2c(sc(NC(=O)CCc3cccc(OCC)c3OCC)c2C#N)C1 [Example 16, 3-Cyano-2-[3-(2,3-diethoxy-phenyl)-propanoylamino]-4,7-dihydro-5H-thieno[2,3-c]pyridine-6-carboxylic acid ethyl ester] | 300 to 2000 nM
> 100000 nM | CCOC(=O)N1CCc2c(sc(NC(=O)CCc3cc(C)ccc3OC)c2C#N)C1 [Example 17, 3-Cyano-2-[3-(2-methoxy-5-methyl-phenyl)-propanoylamino]-4,7-dihydro-5H-thieno[2,3-c]pyridine-6-carboxylic acid ethyl ester] | ≤ 300 nM
> 100000 nM | CCOC(=O)N1CCc2c(sc(NC(=O)CCc3c(OC)ccc4c3OC(F)(F)C(F)(F)O4)c2C#N)C1 [Example 18, 3-Cyano-2-[3-(2,2,3,3-tetrafluoro-6-methoxy-2,3-dihydro-benzo[1,4]dioxin-5-yl)-propanoylamino]-4,7-dihydro-5H-thieno[2,3-c]pyridine-6-carboxylic acid ethyl ester] | 300 to 2000 nM
> 100000 nM | CCOC(=O)N1CCc2c(sc(NC(=O)CCc3ccccc3OCC)c2C#N)C1 [Example 19, 3-Cyano-2-[3-(2-ethoxyphenyl)-propanoylamino]-4,7-dihydro-5H-thieno[2,3-c]-pyridine-6-carboxylic acid ethyl ester] | ≤ 300 nM
> 100000 nM | CCOc1ccccc1CCC(=O)Nc1sc2c(c1C#N)CCN(C(=O)OCC1COC(C)(C)O1)C2 (centres unmarked) [Example 20, 3-Cyano-2-[3-(2-ethoxy-phenyl)-propanoylamino]-4,7-dihydro-5H-thieno[2,3-c]pyridine-6-carboxylic acid 2,2-dimethyl-[1,3]dioxolan-4-ylmethyl ester] | ≤ 300 nM
> 100000 nM | CCOc1ccccc1CCC(=O)Nc1sc2c(c1C#N)CCN(C(=O)OCCOCc1ccccc1)C2 [Example 21, 3-Cyano-2-[3-(2-ethoxy-phenyl)-propanoylamino]-4,7-dihydro-5H-thieno[2,3-c]pyridine-6-carboxylic acid 2-benzyloxy-ethyl ester] | 300 to 2000 nM
> 100000 nM | COc1ccccc1CCC(=O)Nc1sc2c(c1C#N)CCN(C(=O)OCCOCc1ccccc1)C2 [Example 24, 3-Cyano-2-[3-(2-methoxy-phenyl)-propanoylamino]-4,7-dihydro-5H-thieno[2,3-c]pyridine-6-carboxylic acid 2-benzyloxy-ethyl ester] | 300 to 2000 nM
